Laboratory results reported in patent publication US20070037887A1, “Blockade of mtor to prevent a hormonal adaptive response” (University of Virginia Patent Foundation, priority 2003, published 2007).

Experiments:
Solubility in buffer = type: physicochemical
MCF-7 cells = experiment: Growth of MCF-7 cells (cell number); type: cell-based, human
Protocol: FIG. 3 represents the effect of FTS on the growth of MCF-7, LTED, and MCF-10A cells. Sixty thousand cells were plated into each well of 6-well plates. Two days later, the cells were treated in triplicate for five days with FTS at indicated concentrations. The results (mean±S.E.) are expressed as percentage of the vehicle control.
FIG. 4 represents the effect of FTS on E2 stimulated growth of MCF-7 and LTED cells. Thirty thousand cells were plated into each well of 6-well plates. Two days later, the cells were re-fed with IMEM containing 5% DCC-FBS. After another two days, cells were treated in triplicate with estradiol (10^−10 M) plus various concentrations of FTS for five days. In LTED cells, fulvestrant (10^−9 M) was included in all wells to block the effect of residual estrogen in the culture. The results (mean±S.E.) are expressed as percentage of cell number from the wells containing E2.
The effect of FTS on growth of breast cancer cells was examined in two different cell lines: MCF-7 wild type cells which represent a model for untreated breast cancer and LTED cells as a model of cells adapting to endocrine treatment. Cells were grown in their culture media and treated with FTS for five days. […] The effect of FTS on E2-stimulated growth of MCF-7 and LTED cells was the examined. Five-day treatment of MCF-7 cells with E2 (10^−10 M) increased cell number by 8-fold compared with the vehicle control. Addition of FTS reduced cell number in a dose-dependent manner with about 50% inhibition at the concentration of 50 μM […]. […] The extent of inhibition of E2-stimulated cell growth by FTS was similar in these two cell lines.

[1] = test system: ERK1/2, Akt, p70S6K, PHAS-1 phosphorylation in LTED cells; experiment: IGF-1 induced activation of MAP kinase, PI3 kinase and mTOR in LTED cells (Western); type: cell-based, human
Protocol: FIG. 9. represents data showing the effect of FTS on IGF-1 induced activation of MAP kinase, PI3 kinase, and mTOR in LTED cells. Subconfluent LTED cells grown in 60 mm dishes were serum starved for 24 h, pretreated with FTS (100 μM) or LY 294002 (LY, 20 μM) for 10, 30 or 60 min before addition of IGF-1 (20 ng/ml for 10 min). Cells were then harvested and cell lysates prepared. Phosphorylated and total kinases were detected by Western analysis using specific antibodies.
LTED cells were pretreated with FTS (100 μM) or LY 294002 (20 μM) for 10, 30, and 60 min and then IGF-1 (20 ng/ml) was added for 10 min. […] The inhibitory effect was seen as early as 10 minutes of treatment whereas FTS induced no effect. In marked contrast, both FTS and Ly inhibited the phosphorylation of 4E BP-1, particularly at the 60 minute time point. (FIG. 9).

mTOR-mLST8 = experiment: Coimmunoprecipitation of mLST8 with mTOR, compound added to cell extracts; type: binding; conditions: only at the highest concentrations investigated
Protocol: FIGS. 13A & 13B represent data showing FTS promotes raptor dissociation and inhibits mTOR activity in cell extracts. 293T cells were transfected with pcDNA3 alone (Vec.) or with a combination of pcDNA3AU1-mTOR, pcDNA33HA-Raptor, and pcDNA33HA-mLST8. Extracts of the cells were incubated with increasing concentrations of FTS before AU1-mTOR was immunoprecipated. Samples of the immune complexes were incubated with [γ-^32P]ATP and recombinant [His^6]PHAS-I, then subjected to SDS-PAGE and transferred to an immobilon membrane. After obtaining a phosphorimage of the membrane to detect ^32P-PHAS-I, the membrane was immunoblotted with PThr^36/45 antibodies. […]
FIGS. 14A & 14B represent data showing the relative effects of increasing concentrations of FTS and GTS on mTOR activity and the association of mTOR and raptor. Samples of extracts from 293T cells overexpressing AU1-mTOR, HA-raptor, and HA-mLST8 were incubated for 1 h with increasing concentrations of FTS (●, ▴, ▪) or GTS (∘, Δ, □) before immunoprecipitations were conducted with anti-AU1 antibodies. mTOR kinase activity (●, ∘) was determined by measuring ^32P incorporation into [His^6]PHAS-I in immune complex kinases assays performed with [γ-^32P]ATP (see FIG. 14A). The relative amounts of HA-raptor (▴, Δ) and HA-mLST8 (▪, □) that coimmunoprecipitated with AU1-mTOR were determined after immunoblotting with anti-HA antibodies (see FIG. 14B). […]

With `CC(C)=CCC/C(C)=C/CC/C(C)=C/CSc1ccccc1C(=O)O` [FTS, farnesylthiosalicylic acid] the solubility in buffer (Solubility in buffer) was “only limited solubility”, the inhibition at 50 µM (MCF-7 cells; Homo sapiens, MCF7, 120 h, read-out: inhibition of E2-stimulated growth (cell number)) was ~50% and the basal growth (MCF-7 cells; culture media, five days) was “dose-dependently inhibited”. For the same molecule, the “IGF-1 induced ERK1/2 phosphorylation” value ([1]; FTS 100 μM or LY 294002 20 μM for 10, 30, 60 min, IGF-1 20 ng/ml 10 min) was “Neither FTS nor LY 294002 inhibited”, the “phosphorylation of 4E BP-1” value ([1]; FTS 100 μM or LY 294002 20 μM, particularly at 60 minute time point) was “inhibited” and the “IGF-1 induced phosphorylation of Akt at Ser473 and p70S6K at Thr389” value ([1]; FTS 100 μM or LY 294002 20 μM, IGF-1 20 ng/ml 10 min) was “no effect”. The “amounts of transfected and endogenous mLST8 that coimmunoprecipitated with mTOR” value (mTOR-mLST8) was “modestly decreased”.
